# Assay results reported in publication PMC4992173, “Divergent synthesis and identification of the cellular targets of deoxyelephantopins” (Nature Communications, 2016).
# How the values were obtained:
# [1] = target: T1, Zinc finger protein 346 (ZNF346) (Homo sapiens, UniProt Q9UL40); assay: In situ competitive profiling in live MCF7 cells (LFQ): ZNF346; format: cell-based; conditions: 4 h, then 10 µM 24c, n=4
# T1 construct: 1,522 proteins were enriched from MCF7 cells by 10 μM probe 24c; endogenous in cells; host or cells: MCF7
# T1 sequence (Q9UL40 whole entry): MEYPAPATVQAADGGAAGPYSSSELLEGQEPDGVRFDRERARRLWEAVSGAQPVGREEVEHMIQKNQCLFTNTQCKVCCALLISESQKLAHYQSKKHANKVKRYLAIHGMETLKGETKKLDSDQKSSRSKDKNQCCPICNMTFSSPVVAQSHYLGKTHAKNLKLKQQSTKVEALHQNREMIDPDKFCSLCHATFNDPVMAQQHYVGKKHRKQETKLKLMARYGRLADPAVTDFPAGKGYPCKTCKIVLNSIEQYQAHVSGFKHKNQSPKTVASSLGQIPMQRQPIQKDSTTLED
# Excerpt: (§1) In our efforts to determine the direct molecular targets of deoxyelephantopin we first performed a gel-based competitive in situ proteomic profiling assay[41] […] While the greater conformational flexibility of probe 24c could potentially lead to more promiscuous target engagement relatively to deoxyelephantopin, it was favoured based on the fact that an alkyne moiety appended to the rigid scaffold of deoxyelephantopin may hinder some of its interactions. MCF7 cells were pretreated with various concentrations of deoxyelephantopin for 4 h, harvested, lysed and the lysates were treated with the fluorogenic probe 24c-Cy3 (10 μM; Supplementary Fig. 10). […] Furthermore, cells were pretreated with 20 μM concentration of deoxyelephantopin or 24c and the proteomic profiles were compared (Fig. 6b, Supplementary Fig. 11). Multiple bands were detected that were equally competed by both DEP and 24c, thus again confirming that 24c can be used as an acceptable clickable analogue of deoxyelephantopin in pulldown assays. Having established the optimal labelling conditions by SDS–PAGE, we next carried out a mass spectrometry-based competitive profiling assay[42] coupled with the method of stable isotope labelling of amino acids in culture (SILAC)[43]. […]
# (§2) Figure 6 Proteome-wide identification of deoxyelephantopin targets. […] Quantification was performed using label-free quantification (LFQ) method (n=4). […]
# [2] = target: T2, Nucleoporin p54 (NUP54) (Homo sapiens, UniProt Q7Z3B4); assay: In situ competitive profiling in live MCF7 cells (LFQ): NUP54; format: cell-based; conditions: protein NUP54, 4 h, then 10 µM 24c, n=4
# T2 construct: endogenous in cells; host or cells: MCF7
# T2 sequence (Q7Z3B4 whole entry): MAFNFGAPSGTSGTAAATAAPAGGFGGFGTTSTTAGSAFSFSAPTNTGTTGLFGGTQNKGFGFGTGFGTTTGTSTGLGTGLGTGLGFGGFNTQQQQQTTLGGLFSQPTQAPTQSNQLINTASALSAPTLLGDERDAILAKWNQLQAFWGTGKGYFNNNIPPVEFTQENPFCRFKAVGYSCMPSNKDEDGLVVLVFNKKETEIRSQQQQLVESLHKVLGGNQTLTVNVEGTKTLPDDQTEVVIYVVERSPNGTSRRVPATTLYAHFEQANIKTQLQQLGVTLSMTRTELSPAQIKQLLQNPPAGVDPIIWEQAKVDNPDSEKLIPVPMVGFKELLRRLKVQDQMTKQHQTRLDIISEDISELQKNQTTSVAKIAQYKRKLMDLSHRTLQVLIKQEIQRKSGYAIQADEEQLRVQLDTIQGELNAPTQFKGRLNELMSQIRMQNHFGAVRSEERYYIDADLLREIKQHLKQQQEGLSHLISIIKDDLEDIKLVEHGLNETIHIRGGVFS
# Excerpt: as §1, §2
compound,measurement,setting,value
C=C(C)C(=O)O[C@H]1CC2=C[C@@H](C/C(C)=C/[C@H]3OC(=O)C(=C)[C@H]13)OC2=O [deoxyelephantopin],LFQ ratio 20 µM Deoxyelephantopin/DMSO with 24c,[1],0.00
same,LFQ ratio 20 µM Deoxyelephantopin/DMSO with 24c,[2],0.24
